Experimental data reported in patent US6984394B2, “Plastically deformable implant” (Bausch & Lomb Incorporated, priority 1999, dated 2006).

Assays:
[1] = Surface tension of surface-active agent; type: physicochemical; conditions: in aqueous solution
From the text: According to the present invention, the term fluorine-containing gel is defined as a gel-like preparation which comprises a minimum of one fluorocarbon. In especially useful embodiments of the present invention, the fluorine-containing gel comprises essentially three components, i.e., a fluorocarbon, a fluorine-containing surface-active agent, and water. It is possible for different additives to be added to the fluorocarbon-containing and aqueous components. Certain compositions of surface-active agents, fluorocarbons, and water form gels which are able to completely recover their gel structure after they have been liquefied, for example, by exposure to mechanical pressure or heat. This property of the gels according to the present invention makes it possible for them to be used as a generic implant over a long period of time. If the implant material of such an implant that has been inserted into a bodily orifice were to liquefy, for example, as a result of short-term pressure, the gel structure, due to the reversibility described, would be able to recover when in a state of rest. Thus, the implant according to the present invention has a self-regulating restorative mechanism. This self-regulating restorative mechanism of a polyaphron gel is attributable to the stability of the aphrons that form the gel. After liquefaction, a gel can restore its structure only if its “building blocks,” the aphrons, were not completely destroyed. If a sufficient number of intact aphrons remain after liquefaction, a recovery is possible, and what comes as a surprise is the fact that the aphron structure is transferred to the homogenized regions of the surrounding liquid and that the gel structure is restored in the entire liquid. The stability of the aphrons depends on the intensity of the interaction between water, surface-active agent, and perfluorocarbon, which in turn is determined by the surface properties and the ability of the individual phases to spread on each other's surface. In addition, an important aspect is the intensity of the interactions of the molecules within the films that envelop the aphrons (water/surface-active agent; perfluorocarbon/surface-active agent). Thus, the self-regulating restorative mechanism is activated only if the surface properties of the surface-active agent/water and/or surface-active agent/perfluorocarbon film, on the one hand, and of the internal aphron phase, on the other hand, are properly coordinated, i.e., if the strength of the surface-active agent stabilizes the aphron structure. This can be implemented through the use of fluorine-containing surface-active agents of the general formula RF—Rpol, where RF stands for the linear or branched perfluoroalkyl groups with more than 5 carbon atoms and Rpol stands for a polar hydrocarbon residue which comprises a minimum of one functional group which is selected from CO—NH(R), CO—N(R)2, COO—, COOR, SO3; SO2N(R)2, CH2—O—R, PO2H, PO3H. The molecular weight is preferably >400 g/mol, the surface tension in aqueous solution is <30 mN/m and preferably <20 mN/m. The interfacial tension in aqueous solution with respect to the nonpolar component is <25 mN/m, preferably <10 mN/m, and the concentration is <3%, preferably <0.1%. With nonfluorinated surface-active agents, this can be achieved by means of a strong cohesive effect with an HLB value greater than 25 (HLB=hydrophilic lipophilic balance according to Griffin in J. Soc. Cosmet. Chem. 1 (1949), p. 311).

[2] = Interfacial tension with respect to the nonpolar component; type: physicochemical; conditions: surface-active agent, in aqueous solution
From the text: According to the present invention, the term fluorine-containing gel is defined as a gel-like preparation which comprises a minimum of one fluorocarbon. In especially useful embodiments of the present invention, the fluorine-containing gel comprises essentially three components, i.e., a fluorocarbon, a fluorine-containing surface-active agent, and water. It is possible for different additives to be added to the fluorocarbon-containing and aqueous components. Certain compositions of surface-active agents, fluorocarbons, and water form gels which are able to completely recover their gel structure after they have been liquefied, for example, by exposure to mechanical pressure or heat. This property of the gels according to the present invention makes it possible for them to be used as a generic implant over a long period of time. If the implant material of such an implant that has been inserted into a bodily orifice were to liquefy, for example, as a result of short-term pressure, the gel structure, due to the reversibility described, would be able to recover when in a state of rest. Thus, the implant according to the present invention has a self-regulating restorative mechanism. This self-regulating restorative mechanism of a polyaphron gel is attributable to the stability of the aphrons that form the gel. After liquefaction, a gel can restore its structure only if its “building blocks,” the aphrons, were not completely destroyed. If a sufficient number of intact aphrons remain after liquefaction, a recovery is possible, and what comes as a surprise is the fact that the aphron structure is transferred to the homogenized regions of the surrounding liquid and that the gel structure is restored in the entire liquid. The stability of the aphrons depends on the intensity of the interaction between water, surface-active agent, and perfluorocarbon, which in turn is determined by the surface properties and the ability of the individual phases to spread on each other's surface. […]

σG = interfacial tension with respect to the nonpolar component [2]	Compound	σO = surface tension [1]
10 mNm	Perfluoroalkyl ethanol oxethylate [Fluowet OTL]	19 mNm
–	O=C(N(CCO)CCO)C(F)(F)C(F)(F)C(F)(F)C(F)(F)C(F)(F)C(F)(F)C(F)(F)F [HO31, Perfluorooctanoic acid diethanolamide]	σO < 20 mNm
19 mNm	Perfluoroalkyl ethanol oxethylate [Fluowet OTN]	18 mNm
12 mNm	Fluorinated amine oxide [Fluowet OX]	22 mNm
–	O=C(N(CCO)C[C@H](O)[C@@H](O)[C@H](O)[C@H](O)CO)C(F)(F)C(F)(F)C(F)(F)C(F)(F)C(F)(F)C(F)(F)C(F)(F)C(F)(F)C(F)(F)F [Example T21, Perfluorodecanoic acid N-(2-hydroxyethyl)-D-glucamide]	σO < 20 mNm
–	Perfluorooctanoic acid tetraethyl piperazinium salt [HO224]	σO = 16 mNm
–	O=C(N(CCO)CC(O)C(O)C(O)C(O)CO)C(F)(F)C(F)(F)C(F)(F)C(F)(F)C(F)(F)C(F)(F)C(F)(F)F [Example T16, Perfluorooctanoic acid N-(2-hydroxyethyl)-D-glucamide]	σO < 20 mNm
–	C[N+](C)(C)C.O=C([O-])C(F)(F)C(F)(F)C(F)(F)C(F)(F)C(F)(F)C(F)(F)C(F)(F)F [E 749, Tetramethyl ammonium salt of perfluorooctanoic acid]	σO < 20 mNm
–	CN(C[C@H](O)[C@@H](O)[C@H](O)[C@H](O)CO)C(=O)C(F)(F)C(F)(F)C(F)(F)C(F)(F)C(F)(F)C(F)(F)C(F)(F)F [Example T14, Perfluorooctanoic acid N-methyl-D-glucamide]	σO < 20 mNm
–	CC[N+](CC)(CC)CC.O=S(=O)([O-])C(F)(F)C(F)(F)C(F)(F)C(F)(F)C(F)(F)C(F)(F)C(F)(F)C(F)(F)F [Example B248, Tetraethyl animonium salt of perfluorooctanesulfonic acid]	σO < 20 mNm
